In patent US9102752B2, “Peptide vaccine for prevention and immunotherapy of dementia of the Alzheimer's type” (United Biomedical, Inc., priority 2013, dated 2015):

Assays:
[1] = system: anti-Aβ antibodies in sera from vaccinated baboons; assay: Epitope mapping, 10-mer peptide-based ELISA with sera from vaccinated baboons; conditions: peptide as plate coating
Description: Fine specificity analyses of anti-Aβ antibodies in immunized hosts or vaccines were determined by epitope mapping.
These nested peptides were used individually to coat microtiter wells as solid-phase immunoadsorbents for ELISA tests. The positive control ELISA plate was coated with Aβ1-28. They were tested for antibody binding with the sera from the four immunized baboons, from weeks 0, 10, 84 and 111. Baboon sera were serially diluted and assayed on plates coated with a 10-mer peptide at 5 ug/mL.

baboon anti-Aβ antibody = assay: Epitope mapping by competitive inhibition ELISA with hyperimmune baboon sera; type: binding, baboons
[2] = peptide concentration 0.5 μg/mL

Q: 28 (HHQKLVFFAE) [Peptide 28] was tested. Which “ELISA Titer titers (Log10)” value ([1]; 0 weeks post immunization) did it give?
A: The value was 0.19 Log10.

Q: What about the “ELISA Titer titers (Log10)” value ([1]; 10 weeks post immunization) of the same substance?
A: The value was 0.22 Log10.

Q: What about the “ELISA Titer titers (Log10)” value ([1]; 84 weeks post immunization) of the same substance?
A: The value was 0.13 Log10.

Q: What about the “ELISA Titer titers (Log10)” value ([1]; 111 weeks post immunization) of the same substance?
A: Its value is 0.12 Log10.

Q: With 29 (HQKLVFFAED) [Peptide 29] as the substance, how does the “ELISA Titer titers (Log10)” value ([1]; 0 weeks post immunization) read?
A: The value was 0.18 Log10.

Q: What about the “ELISA Titer titers (Log10)” value ([1]; 10 weeks post immunization) of the same substance?
A: Its value is 0.21 Log10.

Q: What about the “ELISA Titer titers (Log10)” value ([1]; 84 weeks post immunization) of the same substance?
A: Its value is 0.13 Log10.

Q: What about the “ELISA Titer titers (Log10)” value ([1]; 111 weeks post immunization) of the same substance?
A: Its value is 0.13 Log10.

Q: “SEQ ID NO: 16: MDAEF RHDSG (MDAEFRHDSG; PEPTIDE (1)..(10) Abeta -1-9 or APP 770(M671-G680); listed as Homo sapiens) [Aβ-1-9]” was tested. Which “Percent (%) Inhibition ELISA after peptide pre-absorption of sera” value (“Percent (%) Inhibition ELISA” for short) (baboon anti-Aβ antibody; [2]) did it give?
A: Its value is 9%.

Q: And the “Percent (%) Inhibition ELISA” value (baboon anti-Aβ antibody; peptide concentration 1 μg/mL)?
A: The value was 4%.

Q: What about the “Percent (%) Inhibition ELISA” value (baboon anti-Aβ antibody; peptide concentration 2 μg/mL) of the same substance?
A: The value was 8%.

Q: And the “Percent (%) Inhibition ELISA” value (baboon anti-Aβ antibody; peptide concentration 8 μg/mL)?
A: The value was 17%.

Q: What about the “Percent (%) Inhibition ELISA” value (baboon anti-Aβ antibody; peptide concentration 32 μg/mL) of the same substance?
A: The value was 39%.

Q: Which results are given for “SEQ ID NO: 17: AEFRH DSGYE (AEFRHDSGYE; PEPTIDE (1)..(10) Abeta 2-11 or APP 770(A673-E682); listed as Homo sapiens) [Aβ2-11]”?
A: Percent (%) Inhibition ELISA after peptide pre-absorption of sera (baboon anti-Aβ antibody; [2]): 0%; Percent (%) Inhibition ELISA after peptide pre-absorption of sera (baboon anti-Aβ antibody; peptide concentration 1 μg/mL): 0%; Percent (%) Inhibition ELISA after peptide pre-absorption of sera (baboon anti-Aβ antibody; peptide concentration 2 μg/mL): 0%; Percent (%) Inhibition ELISA after peptide pre-absorption of sera (baboon anti-Aβ antibody; peptide concentration 8 μg/mL): 6%; Percent (%) Inhibition ELISA after peptide pre-absorption of sera (baboon anti-Aβ antibody; peptide concentration 32 μg/mL): 19%

Q: What does the source list for “SEQ ID NO: 18: EFRHD SGYEV (EFRHDSGYEV; PEPTIDE (1)..(10) Abeta 3-12 or APP 770(E674-V683); listed as Homo sapiens) [Aβ3-12]”?
A: Percent (%) Inhibition ELISA after peptide pre-absorption of sera (baboon anti-Aβ antibody; [2]): 1%; Percent (%) Inhibition ELISA after peptide pre-absorption of sera (baboon anti-Aβ antibody; peptide concentration 1 μg/mL): 0%; Percent (%) Inhibition ELISA after peptide pre-absorption of sera (baboon anti-Aβ antibody; peptide concentration 2 μg/mL): 0%; Percent (%) Inhibition ELISA after peptide pre-absorption of sera (baboon anti-Aβ antibody; peptide concentration 8 μg/mL): 0%; Percent (%) Inhibition ELISA after peptide pre-absorption of sera (baboon anti-Aβ antibody; peptide concentration 32 μg/mL): 3%
